Measurements: patent publication US8084399B2, “Process for screening of a binding amphiphilic peptides specific for hairpin RNA” (priority 2009, dated 2011)
Where no end group is shown, it is not given here. [ ]: non-standard residue; d: D form. Dab = NCC[C@H](N)C(=O)O; Dap = NC[C@H](N)C(=O)O

What was measured:
RRE hairpin RNA = test: Fluorescence anisotropy competition with Rev-N-rhodamine probe, binding to RRE hairpin RNA; parameters: species or system HIV; conditions: 20° C., pH 7.4, read-out: Dissociation constant, RRE
Description: (§1) Binding force to each target hairpin RNA (IRES, RRE, TAR and 16S A-site) was measured by fluorescence polarization using alanine scanned peptide library (1b-1h).
(§2) Particularly, […] of each target RNA was prepared at the concentration of 10 mM, which stood at 65° C. for 10 minutes and then cooled down slowly at room temperature, leading to folding. The amphiphilic peptide was prepared respectively at the concentration of […], which were maintained at 0° C. As a probe, rev peptide labeled with rhodamine (Rev-N-rhodamine) emitting […] fluorescence was prepared at the concentration of 10 mM. Buffer was composed of 140 mM NaCl, 5 mM KCl, 1 mM MgCl2, and 20 mM HEPES (N-2-Hydroxyethylpiperazine-N′-2-Ethanesulfonic Acid, pH 7.4). Fluorescence Anisotropy was measured using AMINCO-Bowman Series Luminescence Spectrometer at 20° C. Ten nM of the probe was added in […] of buffer, to which target RNA was added to induce interaction between the probe and the target RNA. At that time, anisotropy value increased. Then, the synthesized peptide competing with the probe for binding site was added thereto with increasing the concentration slowly. Changes of fluorescence polarization were measured until fluorescence polarization reached as low as the beginning. Considering the concentration and amount of the peptide added, binding force to target RNA was calculated. That is, the binding strength between target RNA and peptide was determined according to the following KaleidaGraph. [Peptide]=Kd(Amax−A)/[Kd(A−A0)+1]×[RNA]−Kd(A−A0)^2[Probe]0/(Amax−A)(Amax−A0)
(§3) Herein, [Peptide] indicates the concentration of peptide, [RNA] indicates the concentration of target RNA, and [Probe]0 indicates the concentration of probe. A is the value of fluorescence anisotropy of sample, Amax is the value of totally bound tracer, and A0 is the value of totally free tracer.

TAR hairpin RNA = test: Fluorescence anisotropy competition with Rev-N-rhodamine probe, binding to TAR hairpin RNA; parameters: species or system HIV; conditions: fluorescence anisotropy, 20° C., pH 7.4; read-out: Dissociation constant, TAR
Description: as §1, §2, §3

16S ribosomal RNA A-site = test: Fluorescence anisotropy competition with Rev-N-rhodamine probe, binding to 16S A-site; conditions: 20° C., pH 7.4, read-out: Dissociation constant, 16S A-site
Description: as §1, §2, §3

IRES domain IV hairpin = test: Fluorescence anisotropy competition with Rev-N-rhodamine probe, binding to IRES hairpin; parameters: species or system HCV; conditions: for differentiation coefficient (IRES): (mean Kd to other hairpin RNA)/(Kd to one hairpin RNA); for Kd: fluorescence anisotropy, 20° C., pH 7.4, read-out: Dissociation constant, IRES; for binding strength to IRES, in words: compared with the original peptide
Description: as §1, §2, §3

[1] = Circular dichroism (CD), percentage of alpha-helix; format: physicochemical; conditions: CD at 20° C., condition not given; for Alpha-helical rate (%), second value of pair: value after the slash; for Alpha-helical rate (%), first value of pair: value before the slash
Description: To investigate alpha-helix of the amphiphilic peptide (1a-1h), circular dichroism (CD) was performed. Particularly, CD was measured at 20° C. by using JASCO model J715 spectropolarimeter. Scanning was performed at 190-250 nm three times (bandwidth: 1 nm, datapitch: 0.5 nm, speed: 100 nm/min), which were averaged to obtain CD data. Spectrum was corrected by measuring background spectrum. CD signal was recorded after modulating thereof with mean residue ellipticity [Q]. Percentage (%) of alpha-helix(fn) was calculated by the following formula. [Q]=Qobs[MRW/(10lc)]
MRW=mean residue weight (dividing molecular weight by the number of peptide bond, l=pathway length (cm), c=concentration (mg/mL). fn=([Q]222−[Q]coil)/([Q]helix−[Q]coil) [Q]helix=−40,000[…]+100t [Q]coil=640−45t
[Q]222=mean residue ellipticity at 222 nm (deg cm2 mol-1), [Q]helix=ellipticity of peptide having complete helical structure, [Q]coil=ellipticity of peptide having complete random coil structure, n=number of amino acid, t=° C.

Row | Substance | Kd (RRE hairpin RNA) [µM] | Kd (TAR hairpin RNA) [µM] | Kd (16S ribosomal RNA A-site) [µM] | differentiation coefficient (IRES) (IRES domain IV hairpin) | Kd (IRES domain IV hairpin) [µM] | Alpha-helical rate (%), second value of pair [1] [%] | Alpha-helical rate (%), first value of pair [1] [%] | binding strength to IRES, in words (IRES domain IV hairpin)
1 | LKKLLDapLLKKLLKLAG (LKKLL[Dap]LLKKLLKLAG-NH2; N-terminus assumed; SMILES CC(C)C[C@H](NC(=O)[C@H](CCCCN)NC(=O)[C@H](CC(C)C)NC(=O)[C@H](CC(C)C)NC(=O)[C@H](CCCCN)NC(=O)[C@H](CCCCN)NC(=O)[C@H](CC(C)C)NC(=O)[C@H](CC(C)C)NC(=O)[C@H](CN)NC(=O)[C@H](CC(C)C)NC(=O)[C@H](CC(C)C)NC(=O)[C@H](CCCCN)NC(=O)[C@H](CCCCN)NC(=O)[C@@H](N)CC(C)C)C(=O)N[C@@H](C)C(=O)NCC(N)=O) [2c, second generation peptide, hydrophilic face modified] | 0.0096 | 0.0057 | 0.012 | 2.4 | 0.0038 | 61 | 26 | –
2 | LKKLLKLLAKLLKLKG [1e, alanine scanned first generation peptide] | 0.13 | 0.074 | 0.18 | 1.1 | 0.12 | 43 | 12 | reduced binding strength
3 | LKKLLKLLDabKLLKLAG (LKKLLKLL[Dab]KLLKLAG-NH2; N-terminus assumed; SMILES CC(C)C[C@H](NC(=O)[C@H](CCCCN)NC(=O)[C@H](CC(C)C)NC(=O)[C@H](CC(C)C)NC(=O)[C@H](CCCCN)NC(=O)[C@H](CCN)NC(=O)[C@H](CC(C)C)NC(=O)[C@H](CC(C)C)NC(=O)[C@H](CCCCN)NC(=O)[C@H](CC(C)C)NC(=O)[C@H](CC(C)C)NC(=O)[C@H](CCCCN)NC(=O)[C@H](CCCCN)NC(=O)[C@@H](N)CC(C)C)C(=O)N[C@@H](C)C(=O)NCC(N)=O) [2e, second generation peptide, hydrophilic face modified] | 0.023 | 0.028 | 0.017 | 6.5 | 0.0035 | 57 | 43 | –
4 | LKKLLKLLDapKLLKLAG (LKKLLKLL[Dap]KLLKLAG-NH2; N-terminus assumed; SMILES CC(C)C[C@H](NC(=O)[C@H](CCCCN)NC(=O)[C@H](CC(C)C)NC(=O)[C@H](CC(C)C)NC(=O)[C@H](CCCCN)NC(=O)[C@H](CN)NC(=O)[C@H](CC(C)C)NC(=O)[C@H](CC(C)C)NC(=O)[C@H](CCCCN)NC(=O)[C@H](CC(C)C)NC(=O)[C@H](CC(C)C)NC(=O)[C@H](CCCCN)NC(=O)[C@H](CCCCN)NC(=O)[C@@H](N)CC(C)C)C(=O)N[C@@H](C)C(=O)NCC(N)=O) [2f, second generation peptide, hydrophilic face modified] | 0.01 | 0.011 | 0.015 | 0.6 | 0.02 | 57 | 25 | –
5 | LKKLLKLLKALLKLKG [1f, alanine scanned first generation peptide] | 0.092 | 0.025 | 0.064 | 1.8 | 0.033 | 45 | 17 | –
6 | LKKLLKLLKKLLALKG [1g, alanine scanned first generation peptide] | 0.09 | 0.039 | 0.2 | 0.47 | 0.21 | 44 | 8 | reduced binding strength
7 | LKKLLKLLKKLLDabLAG (LKKLLKLLKKLL[Dab]LAG-NH2; N-terminus assumed; SMILES CC(C)C[C@H](NC(=O)[C@H](CCN)NC(=O)[C@H](CC(C)C)NC(=O)[C@H](CC(C)C)NC(=O)[C@H](CCCCN)NC(=O)[C@H](CCCCN)NC(=O)[C@H](CC(C)C)NC(=O)[C@H](CC(C)C)NC(=O)[C@H](CCCCN)NC(=O)[C@H](CC(C)C)NC(=O)[C@H](CC(C)C)NC(=O)[C@H](CCCCN)NC(=O)[C@H](CCCCN)NC(=O)[C@@H](N)CC(C)C)C(=O)N[C@@H](C)C(=O)NCC(N)=O) [2h, second generation peptide, hydrophilic face modified] | 0.014 | 0.012 | 0.025 | 2.0 | 0.0087 | 34 | 24 | –
8 | LKKLLKLLKKLLDapLAG (LKKLLKLLKKLL[Dap]LAG-NH2; N-terminus assumed; SMILES CC(C)C[C@H](NC(=O)[C@H](CN)NC(=O)[C@H](CC(C)C)NC(=O)[C@H](CC(C)C)NC(=O)[C@H](CCCCN)NC(=O)[C@H](CCCCN)NC(=O)[C@H](CC(C)C)NC(=O)[C@H](CC(C)C)NC(=O)[C@H](CCCCN)NC(=O)[C@H](CC(C)C)NC(=O)[C@H](CC(C)C)NC(=O)[C@H](CCCCN)NC(=O)[C@H](CCCCN)NC(=O)[C@@H](N)CC(C)C)C(=O)N[C@@H](C)C(=O)NCC(N)=O) [2i, second generation peptide, hydrophilic face modified] | 0.023 | 0.0084 | 0.02 | 12 | 0.0014 | 54 | 39 | –
9 | LKKLLKLLKKLLDapWAG (LKKLLKLLKKLL[Dap]WAG-NH2; N-terminus assumed; SMILES CC(C)C[C@H](NC(=O)[C@H](CC(C)C)NC(=O)[C@H](CCCCN)NC(=O)[C@H](CCCCN)NC(=O)[C@H](CC(C)C)NC(=O)[C@H](CC(C)C)NC(=O)[C@H](CCCCN)NC(=O)[C@H](CC(C)C)NC(=O)[C@H](CC(C)C)NC(=O)[C@H](CCCCN)NC(=O)[C@H](CCCCN)NC(=O)[C@@H](N)CC(C)C)C(=O)N[C@@H](CN)C(=O)N[C@@H](Cc1c[nH]c2ccccc12)C(=O)N[C@@H](C)C(=O)NCC(N)=O) [3g, third generation peptide, both faces modified] | 0.011 | 0.0059 | 0.017 | 9.4 | 0.0012 | 63 | 41 | –
10 | LKKLLKLLKKLLKLAG [1h, alanine scanned first generation peptide] | 0.025 | 0.063 | 0.053 | 0.96 | 0.049 | 43 | 9 | –
